The source of these data is patent US20040038888A1 (priority 2002, published 2004).

One assay relates to primary adult NSC. In words: Self renewal and multipotency assay. As to conditions: PACAP 100 nM. In kind it is cell-based, mouse. The method, then: Anterior lateral wall of the lateral ventricle was dissociated as described in Example 2 (Method A), and the cells resuspended in Neurosphere medium without EGF. The cell suspension was divided into a 24-well plate in triplicate and PACAP added to a final concentration of 100 nM. After 7 days, the neurospheres were split into single cells, as described in Example 1 (Method A), but in the absence of EGF. The cells were replated as single cells, PACAP added to 100 nM and incubated a further 7 days. The cells were passaged one further time, and plated as single cells in Neurosphere medium supplemented with 1% Fetal Calf Serum (Gibco) and 100 nM PACAP (Bachem) onto poly-D-lysine plates. The cells were incubated over-night in which time they adhered to the poly-D-lysine plates and the medium was changed to Neurosphere medium supplemented with 100 nM PACAP38, but absent of Fetal Calf Serum. The cells were cultured for a further 3 days, after which they were washed twice in PBS (Gibco) and fixed for 15 min at room temperature with 4% Formaldehyde (Sigma) and permeabilised for 20 minutes at room temperature in 0,1% Triton X-100 (Sigma) in PBS. After fixation and permeabilisation the cells were labelled with mouse monoclonal anti β-III Tubulin (1:1000 Promega), rabbit anti GFAP (1:500 Sigma), and mouse anti CNPase (1:500 Sigma). Primary antibodies were visualized with anti mouse Texas-Red and anti rabbit FITC (1:500 Vector Laboratories). All antibodies were diluted in PBS with 0,1% Triton X-l00.

The test system of assay [1] is CREB phosphorylation. In words: Western blot of phosphorylated CREB, differentiating adult mouse NSC, adherent. In kind it is cell-based. To be noted: 10 nM PACAP. Here is the method:
Adult mouse NSC and aHNSC were prepared and cultured as stated in Example 5 (Method A & B) and Example 2 (Method A), respectively. Cultures were exposed to 10 nM PACAP for the times indicated. After treatment, the cells were lysed in lysis buffer, as shown in Patrone et al. (Patrone, Andersson et al. 1999). DNA content was detemined by the use of a Pico Green-kit for ds DNA quantitation of cell extracts. Total protein measurements were performed with Nano Orange-kit. Equal amounts of protein were run on a gradient gel 4-12% Bis-Tris gel (NuPage/Mops buffer) and transferred to a nitrocellulose membrane. Western blot was performed and phosphorylated CREB was labelled using a rabbit anti phospho-CREB (1:1000, Upstate biotechnology), a secondary anti rabbit HRP antibodies (1:10.000). Phosphorylated CREB protein bands (43 kD) were detected using the ECL-kit (Amersham).

The subject of assay [2] is CREB phosphorylation. In words: Western blot of phosphorylated CREB, undifferentiated aHNSC. To be noted: 10 nM PACAP. The assay is classed as cell-based, human. The method, then:
A biopsy from the anterior lateral wall of the lateral ventricle was taken from an adult human patient and enzymatically dissociated in PDD (Papain 2.5 U/ml; Dispase 1 U/ml; Dnase 1 250 U/ml) in DMEM containing 4.5 mg/ml glucose and 37° C. for 20 min. The cells were gently triturated and mixed with three volumes of Human Neural Stem Cell Plating Medium (HNSCPM) (DMEM/F12; 10% fetal bovine serum (FBS)). The cells were pelleted at 250×g for 5 min. The supernatant was subsequently removed and the cells resuspended in HNSCPM, plated out on fibronectin coated culture dishes and incubated at 37° C. in 5% CO2. The following day the expansion of the culture was initiated by change of media to aHNSC culture media (DMEM/F12; BIT 9500; EGF 20 ng/ml; FGF2 20 ng/ml). The aHNSC were split using trypsin and EDTA under standard conditions. FBS was subsequently added to inhibit the reaction and the cells collected by centrifugation at 250×g for 5 min. The aHNSC were replated in aHNSC culture media.
Adult mouse NSC and aHNSC were prepared and cultured as stated in Example 2 (Method A) and Example 1 (Method A). Cultures were exposed to either 10 nM PACAP or EGF (1 nM) and FGF (1 nM) for the times indicated. […] DNA content was detemined by the use of a Pico Green-kit for ds DNA quantitation of cell extracts. […] Phosphorylated CREB protein bands (43 kD) were detected using the ECL-kit (Amersham).

On to “pituitary adenylate cyclase-activating polypeptide [PACAP]”, for which, in the assay on primary adult NSC, the “multiply-passaged neurospheres compared to EGF-treated neurospheres” value is on record as “no relevant differences”. In the assay on primary adult NSC (absence of other mitogens), the “self-renewal (secondary and tertiary neurospheres)” value is listed as “retained their ability to self-renew”. Moreover, the “multipotentiality (β-III Tubulin, GFAP, CNPase immunoreactivity)” value in the assay with primary adult NSC (spontaneous differentiation on poly-D-lysine) was “retaining the potential of generating all the cells of the CNS”. The CREB phosphorylation result with CREB phosphorylation [1] (15 min exposure) is listed as “upregulated”; in the assay on CREB phosphorylation [1] (240 min), “slightly above basal levels”; in the assay with CREB phosphorylation [2] (15 min) it was “strong upregulation”; in the assay on CREB phosphorylation [2] (240 min), “slightly above basal levels”.
